The values below come from ChEMBL document CHEMBL1138215, “Aminodeoxychorismate synthase inhibitors from one-bead one-compound combinatorial libraries: "staged" inhibitor design” (J Med Chem, 2006).

pKi: −log10 of the molar value. Activity calls are given as the source filed them. No cut-off for these calls is given here.

For one experiment, the target named is 4-amino-4-deoxychorismate synthase (Escherichia coli). Put plainly: Inhibition of ADCS.
In the case of `NC(=O)C1(NC(=O)[C@H](CCCCNC(=O)c2cccc(OCC(=O)O)c2)NC(=O)c2ccc(Oc3ccccc3)cc2)CCS(=O)(=O)CC1`, the pKi is 3.15.
On the same count and under the same terms, the figure for `Cc1ccc(C(=O)N[C@@H](CCCCNC(=O)c2cccc(OCC(=O)O)c2)C(=O)NCC(C(N)=O)C2CCCCC2)c([N+](=O)[O-])c1O` (some centres undefined) is 2.77; for `NC(=O)c1cccc(OCC(=O)O)c1` it is 1.49.
Same read-out and setting: then `Cc1ccc(C(=O)N[C@@H](CCCCNC(=O)c2cccc(OCC(=O)O)c2)C(=O)N[C@@H](Cc2cccc(Cl)c2)C(=O)NCCOCCOCCNC(=O)CCC(=O)N2CCN(CC(N)=O)CC2)c([N+](=O)[O-])c1O`, with 2.82.
`CC(=O)N[C@@H](CCCCNC(=O)c1cccc(OCC(=O)O)c1)C(N)=O` had a pKi of 1.51.
With `Cc1ccc(C(=O)N[C@@H](CCCCNC(=O)c2cccc(OCC(=O)O)c2)C(=O)N[C@@H](Cc2cccc(Cl)c2)C(N)=O)c([N+](=O)[O-])c1O`, the negative logarithm of the Ki (pKi) was 3.11.
In turn, `O=C(O)COc1ccc(C(=O)O)cc1` showed a pKi of 1.00.
`O=C(O)CNc1cc(C(=O)O)ccc1F` gave a negative logarithm of the Ki (pKi) of 2.52.
The same measure, in the same setting: then `CC(C(=O)N[C@@H](CCCCNC(=O)c1cccc(OCC(=O)O)c1)C(=O)NCCc1cccc2c1oc1c(CCC(=O)NCCOCCOCCNC(=O)CCC(=O)N3CCN(CC(N)=O)CC3)cccc12)c1ccc([N+](=O)[O-])cc1` (some centres undefined), with 2.85; and `CC(=O)N[C@@H](CCCCNCc1cccc(OCC(=O)O)c1)C(N)=O`, with 1.42; and `NC(=O)C1(NC(=O)[C@H](CCCCNC(=O)c2cccc(OCC(=O)O)c2)NC(=O)c2ncccc2C(=O)c2ccccc2)CCCCC1`, with 2.41.
Molecule `O=C(O)CCNc1ccc(C(=O)O)cc1` showed a pKi of 1.89.
On the same count and under the same terms, the figure for `O=C(O)c1ccc(=O)oc1` is 2.70; for `Cc1ccc(C(=O)N[C@@H](CCCCNC(=O)c2cccc(OCC(=O)O)c2)C(=O)N[C@@H](Cc2ccc(C#N)cc2)C(N)=O)c([N+](=O)[O-])c1O` it is 3.27; for `CC(C(=O)N[C@@H](CCCCNC(=O)c1cccc(OCC(=O)O)c1)C(=O)NCCc1cccc2c1oc1c(CCC(N)=O)cccc12)c1ccc([N+](=O)[O-])cc1` (some centres undefined) it is 3.44.
Turning to `O=C(O)COc1cccc(C(=O)O)c1`, the pKi was 1.43.
On the same count and under the same terms, then `COc1cccc(OC)c1C(=O)N[C@@H](CCCCNC(=O)c1cccc(OCC(=O)O)c1)C(=O)N[C@@H](Cc1ccc([N+](=O)[O-])c(O)c1)C(N)=O`, with 3.14; and `NC(=O)C1(NC(=O)[C@H](CCCCNC(=O)c2cccc(OCC(=O)O)c2)NC(=O)c2cc(O)cc(O)c2)CCCCC1`, with 2.96.

In the next experiment the test system is 4-amino-4-deoxychorismate synthase ADCS/PabB (Escherichia coli). Put plainly: Inhibition of ADCS.
As to `O=C(O)CCC1=CC(CCC(=O)O)CCC1=O` (centres undefined), the outcome was inactive.
